Reference: article PMC12174528 (Asian Pacific Journal of Cancer Prevention : APJCP, 2025)
≈ marks a conversion by molar mass, not a printed value.

How the values were obtained:
MCF-7 cancer cell line = assay: Cell viability assay; type: cell-based; conditions: Homo sapiens, MCF7, 24 h, read-out: IC50 (cytotoxicity, SRB assay)
MCF-7 colony formation = assay: Cell proliferation; type: cell-based, human; conditions: MCF-7, treated with IC50, 5 days; negative control 100%
MCF-7 cell migration = assay: Cell migration; type: cell-based, human; conditions: for migration area at 24 hours: MCF-7, treated with IC50, 24 hours, negative control 44.02%
[1] = system: normal human diploid fibroblasts; conditions: cited from earlier work

## C[C@@H]1O[C@@H](O[C@@H]2[C@@H](O)[C@H](OCCc3ccc(O)c(O)c3)O[C@H](CO)[C@H]2OC(=O)/C=C/c2ccc(O)c(O)c2)[C@H](O)[C@H](O)[C@H]1O [ACT, Acteoside]
MCF-7 cancer cell line
  IC50: 135 µg/mL (≈ 216 µM)
MCF-7 colony formation
  colony formation relative to the negative control: 39.7%
MCF-7 cell migration
  migration area at 24 hours: 14.38%
[1]
  toxic effects on normal human diploid fibroblasts: no toxic effects

## C[C@H]1c2cccc(O)c2C(=O)C2=C(O)[C@]3(O)C(=O)C(C(N)=O)=C(O)[C@@H](N(C)C)[C@@H]3[C@@H](O)[C@@H]21 [DOX, doxycycline]
MCF-7 cancer cell line
  IC50: 343 µg/mL (≈ 773 µM)
MCF-7 colony formation
  colony formation relative to the negative control: 35.56%
MCF-7 cell migration
  migration area at 24 hours: 6.8%
MCF-7 cell migration; MCF-7, treated with IC50, 48 hours, negative control 53.99%
  migration area at 48 hours: -16.50%
